These results are taken from patent EP2140864A2 (H. Lundbeck A/S, priority 2001, dated 2002).

A value given as a limit tells only on which side of the number the result lay.

In one experiment the target is T1, human 5HT1B (Homo sapiens, UniProt P28222).
T1 construct: expressed in transfected cells
The experiment in a line: Radioligand binding, 5HT1B receptor ([3H]-serotonin). The following applies: for Ki: Table 7, read-out: h5HT1B Ki; for selectivity ratio h5HT1B: Table 8, Ki h5HT1B divided by Ki hGAL3. As to the method:
(§1) Human 5HT1B, 5HT1D, 5HT1E, 5HT1F, and 5HT7 Receptors: The cell lysates of LM(tk-) clonal cell line stably transfected with the genes encoding each of these 5HT receptor-subtypes were prepared as described above. Cell membranes were suspended in 50mM Tris-HCl buffer (pH 7.4 at 37°C) containing 10 mM MgCl2, 0.2 mM EDTA, 10 µM pargyline, and 0.1% ascorbate. […] Nonspecific binding was determined in the presence of 10 µM serotonin. The bound radioligand was separated by filtration through GF/B filters using a cell harvester.
(§2) Binding data were analyzed using nonlinear regression and statistical techniques available in the GraphPAD Prism package (San Diego, CA). Enzymatic assay data were derived from a standard curve of reference compound data.

Another experiment has as its target 5HT transporter (Rattus norvegicus, UniProt P31652). The experiment in a line: Binding at native 5HT transporter. Conditions: for Ki: Table 7, native transporter, head prints r (rat), read-out: r5HT Uptk Ki; for selectivity ratio r5HT Uptk: Table 8, Ki r5HT Uptk divided by Ki hGAL3. As to the method: (§3) The binding properties of the compounds of the present invention were evaluated at one or more cloned receptors or native, tissue-derived transporters, using protocols described below.
(§4) The methods to determine binding affinity at native transporters are described in the following publications: 5HT transporter and NE transporter (Owens et al., 1997), and DA transporter (Javitch et al, 1984).
as §2

Another experiment has as its target T2, human dopamine D1 (Homo sapiens, UniProt P21728).
T2 construct: purchased BioSignal, Inc. (Montreal, Canada); host or cells: membranes of cells expressing the receptor
The experiment in a line: Radioligand binding, dopamine D1 receptor. The following applies: for Ki: Table 9, read-out: hD1 Ki; for selectivity ratio hD1: Table 10, Ki hD1 divided by Ki hGAL3.
Excerpt: (§5) Other receptors: Cell membranes expressing human dopamine D1, D2, D4 and rat D3 receptors were purchased through BioSignal, Inc. (Montreal, Canada). Binding assays using the histamine H1 receptor; dopamine receptors; and α1A, α1E, and α2 adrenergic receptors may be carried out according to the procedures described in U.S. Patent No. 5,780,485, the disclosure of which is hereby incorporated by reference in its entirety into this application. Binding assays using the dopamine D5 receptor may be carried out according to the procedures described in U.S. Patent No. 5,882,855, the disclosure of which is hereby incorporated by reference in its entirety into this application. Binding assays for the human α1D adrenergic receptor may be carried out according to the procedures described in U.S. Patent No. 6,156,518, the disclosure of which is hereby incorporated by reference in its entirety into this application.
as §2

Another experiment concerns the target DA transporter (Rattus norvegicus, UniProt P23977). The experiment in a line: Binding at native DA transporter. The following applies: for Ki: Table 7, native transporter, head prints r (rat), read-out: rDA Uptk Ki; for selectivity ratio rDA Uptk: Table 8, Ki rDA Uptk divided by Ki hGAL3. As to the method:
as §3, §4, §2

The next experiment addresses T3, dopamine D5 receptor (Homo sapiens, UniProt P21918).
T3 construct: expressed in transfected cells
Put plainly: Radioligand binding, dopamine D5 receptor. The following applies: for Ki: Table 9, read-out: hD5 Ki; for selectivity ratio hD5: Table 10, Ki hD5 divided by Ki hGAL3.
Excerpt: as §5, §2

Another experiment concerns the target T4, human 5HT1D (Homo sapiens, UniProt P28221).
T4 construct: expressed in transfected cells
The experiment in a line: Radioligand binding, 5HT1D receptor ([3H]-serotonin). The following applies: for Ki: Table 7, read-out: h5HT1D Ki; for selectivity ratio h5HT1D: Table 8, Ki h5HT1D divided by Ki hGAL3. As to the method: as §1, §2

A further experiment deals with T5, Human 5HT2A Receptor (Homo sapiens, UniProt P28223).
T5 construct: expressed in transfected cells; host or cells: COS-7 cells (pCEXV-3 vector, DEAE-dextran)
The experiment in a line: Radioligand binding, 5HT2A receptor ([3H]ketanserin). Conditions: for Ki: Table 7, read-out: h5HT2A Ki; for selectivity ratio h5HT2A: Table 8, Ki h5HT2A divided by Ki hGAL3. As to the method:
Human 5HT2A Receptor: The coding sequence of the human 5HT2A receptor was obtained from a human brain cortex cDNA library, and cloned into the cloning site of pCEXV-3 eukaryotic expression vector. This construct was transfected into COS-7 cells by the DEAE-dextran method (Cullen, 1987). Cells were harvested after 72 hours and lysed by sonication in 5 mM Tris-HCl, 5 mM EDTA, pH 7.5. The cell lysates were subjected to centrifugation at 1000 rpm for 5 minutes at 4°C, and the supernatant was subjected to centrifugation at 30,000 x g for 20 minutes at 4°C. The pellet was suspended in 50 mM Tris-HCl buffer (pH 7.7 at room temperature) containing 10 mM MgS04, 0.5 mM EDTA, and 0.1% ascorbate. The affinity of compounds at 5HT2A receptors were determined in equilibrium competition binding assays using [^3H]ketanserin (1 nM). Nonspecific binding was defined by the addition of 10 µM mianserin. The bound radioligand was separated by filtration through GF/B filters using a cell harvester.
as §2

5HT transporter, sequence (P31652 whole entry): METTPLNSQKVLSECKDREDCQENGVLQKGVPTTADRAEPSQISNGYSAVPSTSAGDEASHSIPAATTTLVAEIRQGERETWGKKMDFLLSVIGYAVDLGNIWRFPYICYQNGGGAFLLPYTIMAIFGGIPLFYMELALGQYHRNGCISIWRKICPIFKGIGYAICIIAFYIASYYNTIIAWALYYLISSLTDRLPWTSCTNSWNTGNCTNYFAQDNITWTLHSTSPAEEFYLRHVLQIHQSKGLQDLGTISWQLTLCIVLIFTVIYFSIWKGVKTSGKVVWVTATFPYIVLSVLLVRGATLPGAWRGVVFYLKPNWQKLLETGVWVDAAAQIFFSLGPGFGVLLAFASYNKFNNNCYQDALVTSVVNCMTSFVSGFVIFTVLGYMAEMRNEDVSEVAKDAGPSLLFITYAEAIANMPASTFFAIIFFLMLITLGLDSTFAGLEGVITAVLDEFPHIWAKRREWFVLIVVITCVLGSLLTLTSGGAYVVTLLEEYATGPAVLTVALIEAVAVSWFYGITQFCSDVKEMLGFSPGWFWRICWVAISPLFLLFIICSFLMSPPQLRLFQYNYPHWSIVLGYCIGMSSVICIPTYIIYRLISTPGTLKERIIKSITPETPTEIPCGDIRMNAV
T3 sequence (P21918 whole entry): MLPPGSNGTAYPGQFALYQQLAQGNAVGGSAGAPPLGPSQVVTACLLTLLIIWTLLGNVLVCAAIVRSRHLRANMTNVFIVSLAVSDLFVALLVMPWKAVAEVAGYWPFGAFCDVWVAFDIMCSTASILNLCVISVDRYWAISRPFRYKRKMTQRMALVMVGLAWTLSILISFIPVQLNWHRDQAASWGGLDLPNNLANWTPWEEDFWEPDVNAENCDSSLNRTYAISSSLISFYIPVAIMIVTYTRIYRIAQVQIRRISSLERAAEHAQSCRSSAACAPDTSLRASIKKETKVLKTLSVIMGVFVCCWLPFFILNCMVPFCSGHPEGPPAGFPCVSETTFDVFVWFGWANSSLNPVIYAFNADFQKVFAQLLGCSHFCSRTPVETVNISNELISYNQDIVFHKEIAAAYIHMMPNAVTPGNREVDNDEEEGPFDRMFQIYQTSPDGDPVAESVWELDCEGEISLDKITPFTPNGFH
T1 sequence (P28222 whole entry): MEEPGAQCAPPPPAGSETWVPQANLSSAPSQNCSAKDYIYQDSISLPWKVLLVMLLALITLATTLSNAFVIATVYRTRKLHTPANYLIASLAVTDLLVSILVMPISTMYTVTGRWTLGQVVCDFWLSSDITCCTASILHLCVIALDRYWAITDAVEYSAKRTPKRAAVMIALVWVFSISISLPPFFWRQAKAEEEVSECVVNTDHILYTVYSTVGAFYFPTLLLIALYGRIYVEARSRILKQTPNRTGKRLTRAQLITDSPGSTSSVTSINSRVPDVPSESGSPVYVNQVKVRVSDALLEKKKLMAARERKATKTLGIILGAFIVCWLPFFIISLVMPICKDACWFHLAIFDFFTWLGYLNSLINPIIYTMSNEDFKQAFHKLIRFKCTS
T5 sequence (P28223 whole entry): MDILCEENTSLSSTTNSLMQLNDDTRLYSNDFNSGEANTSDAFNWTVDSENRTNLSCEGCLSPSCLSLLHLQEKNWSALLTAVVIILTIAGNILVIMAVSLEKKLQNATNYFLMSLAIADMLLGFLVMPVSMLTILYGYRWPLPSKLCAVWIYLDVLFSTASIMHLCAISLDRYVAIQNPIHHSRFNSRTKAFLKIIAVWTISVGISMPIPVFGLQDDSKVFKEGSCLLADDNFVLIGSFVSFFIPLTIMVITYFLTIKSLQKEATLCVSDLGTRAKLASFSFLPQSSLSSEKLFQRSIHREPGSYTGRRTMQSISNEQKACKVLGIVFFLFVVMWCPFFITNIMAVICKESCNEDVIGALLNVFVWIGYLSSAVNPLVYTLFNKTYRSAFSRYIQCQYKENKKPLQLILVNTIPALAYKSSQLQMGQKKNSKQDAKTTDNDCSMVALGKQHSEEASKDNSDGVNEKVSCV
DA transporter, sequence (P23977 whole entry): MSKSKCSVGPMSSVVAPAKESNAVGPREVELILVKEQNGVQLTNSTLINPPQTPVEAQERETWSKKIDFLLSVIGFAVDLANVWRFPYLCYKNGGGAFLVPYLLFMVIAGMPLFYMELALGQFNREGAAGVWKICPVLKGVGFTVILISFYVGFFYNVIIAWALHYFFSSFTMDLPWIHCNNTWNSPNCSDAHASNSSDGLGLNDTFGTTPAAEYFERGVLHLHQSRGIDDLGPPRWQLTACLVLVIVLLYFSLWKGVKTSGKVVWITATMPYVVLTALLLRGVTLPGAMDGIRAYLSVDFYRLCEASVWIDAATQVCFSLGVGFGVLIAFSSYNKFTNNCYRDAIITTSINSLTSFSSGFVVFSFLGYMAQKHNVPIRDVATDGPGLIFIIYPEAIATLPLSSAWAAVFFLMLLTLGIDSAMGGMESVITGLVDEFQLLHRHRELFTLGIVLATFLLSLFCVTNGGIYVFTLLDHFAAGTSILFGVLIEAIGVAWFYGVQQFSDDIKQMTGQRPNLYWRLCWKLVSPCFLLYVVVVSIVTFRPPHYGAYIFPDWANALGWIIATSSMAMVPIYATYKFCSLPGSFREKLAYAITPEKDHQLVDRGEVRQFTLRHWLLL
T4 sequence (P28221 whole entry): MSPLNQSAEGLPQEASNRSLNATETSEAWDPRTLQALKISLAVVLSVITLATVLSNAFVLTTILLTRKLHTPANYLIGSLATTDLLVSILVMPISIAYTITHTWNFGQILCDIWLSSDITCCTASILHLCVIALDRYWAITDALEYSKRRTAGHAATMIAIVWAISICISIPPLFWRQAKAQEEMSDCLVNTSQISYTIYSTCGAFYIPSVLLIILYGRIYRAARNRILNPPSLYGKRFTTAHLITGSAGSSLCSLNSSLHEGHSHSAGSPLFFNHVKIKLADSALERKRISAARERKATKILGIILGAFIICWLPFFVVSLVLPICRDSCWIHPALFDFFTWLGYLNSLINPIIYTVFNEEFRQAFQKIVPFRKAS
T2 sequence (P21728 whole entry): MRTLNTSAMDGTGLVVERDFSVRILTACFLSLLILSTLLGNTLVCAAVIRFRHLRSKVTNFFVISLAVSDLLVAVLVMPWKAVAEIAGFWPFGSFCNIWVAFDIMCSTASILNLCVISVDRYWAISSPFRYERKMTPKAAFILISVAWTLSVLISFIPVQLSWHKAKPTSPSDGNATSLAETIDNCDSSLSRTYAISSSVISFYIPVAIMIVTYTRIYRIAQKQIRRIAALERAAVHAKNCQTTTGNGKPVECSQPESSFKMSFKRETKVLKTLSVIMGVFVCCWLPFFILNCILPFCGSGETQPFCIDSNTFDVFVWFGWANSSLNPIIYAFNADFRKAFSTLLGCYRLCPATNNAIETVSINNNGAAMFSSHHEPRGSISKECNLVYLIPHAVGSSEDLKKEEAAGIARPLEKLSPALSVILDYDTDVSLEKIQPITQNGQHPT

Turning to `O=C1C(=Nc2ccc(C(F)(F)F)cc2)c2ccccc2N1c1ccccc1` [Example 95, 1-PHENYL-3-[[4-(TRIFLUOROMETHYL)PHENYL]IMINO]-1,3-DIHYDRO-2H-INDOL-2-ONE], on human 5HT1B, the Ki (usually the dissociation constant of the complex between target and ligand, obtained from inhibition or displacement) is 5.23 µM; the “selectivity ratio h5HT1B” value is reported as more than 100. Also, on 5HT transporter, the inhibitory constant (Ki) was more than 50 µM and the “selectivity ratio r5HT Uptk” value is recorded as more than 100. Further, on human dopamine D1, the Ki was 4.39 µM and the “selectivity ratio hD1” value was more than 100. Also, on DA transporter, the Ki stood at 12 µM and the “selectivity ratio rDA Uptk” value is reported as more than 100. Besides, at dopamine D5 receptor, the Ki was 2.59 µM and the “selectivity ratio hD5” value is on record as more than 30. Besides, at human 5HT1D, the Ki turned out to be 16 µM and the “selectivity ratio h5HT1D” value is listed as more than 100. Also, at Human 5HT2A Receptor, the Ki is more than 50 µM and the “selectivity ratio h5HT2A” value is listed as more than 100.

Take `O=C1C(=Nc2ccc(Cl)cc2)c2ccccc2N1c1ccccc1` [Example 97, 3-[(4-CHLOROPHENYL)IMINO]-1-PHENYL-1,3-DIHYDRO-2H-INDOL-2-ONE]: at human 5HT1B, the Ki stood at 5.06 µM and the “selectivity ratio h5HT1B” value is given as more than 30. Further, at 5HT transporter, the Ki was found to be 36.3 µM and the “selectivity ratio r5HT Uptk” value was more than 100. Besides, on human dopamine D1, the Ki was determined as 25.1 µM and the “selectivity ratio hD1” value is more than 100. Besides, on DA transporter, the Ki was determined as 8.44 µM and the “selectivity ratio rDA Uptk” value is listed as more than 100. Further, on dopamine D5 receptor, the Ki was 10.1 µM and the “selectivity ratio hD5” value is listed as more than 100. Also, at human 5HT1D, the Ki is 14.2 µM and the “selectivity ratio h5HT1D” value is more than 100. On Human 5HT2A Receptor, the Ki is more than 50 µM and the “selectivity ratio h5HT2A” value is more than 100.

Consider `O=C1C(=Nc2ccc(Br)cc2)c2ccccc2N1c1ccccc1` [Example 98, 3-[(4-BROMOPHENYL)IMINO]-1-PHENYL-1,3-DIHYDRO-2H-INDOL-2-ONE], for which, on human 5HT1B, the Ki was determined as 2.42 µM and the “selectivity ratio h5HT1B” value was more than 30. At 5HT transporter, the Ki was found to be 36.3 µM and the “selectivity ratio r5HT Uptk” value was more than 100. Moreover, on human dopamine D1, the Ki stood at 2.52 µM and the “selectivity ratio hD1” value is given as more than 30. Further, at DA transporter, the Ki was found to be 7.43 µM and the “selectivity ratio rDA Uptk” value is more than 100. Also, at dopamine D5 receptor, the Ki is 1.2 µM and the “selectivity ratio hD5” value is recorded as more than 30. In addition, at human 5HT1D, the Ki amounted to 9.12 µM and the “selectivity ratio h5HT1D” value is given as more than 100. On Human 5HT2A Receptor, the Ki is more than 50 µM and the “selectivity ratio h5HT2A” value was more than 100.
